Values of other authors as cited in patent US20150079169A1 (POZEN INC., priority 2011, published 2015).

How the values were obtained:
[1] = for major cardiovascular events (ischaemic stroke, MI, or vascular death), average rate per year: 19,185 people with history of MI, stroke, or peripheral arterial disease, clopidogrel 75 mg daily versus aspirin 325 mg daily
[2] = clopidogrel therapy
[3] = oral dose of 14C-labeled clopidogrel in humans, five days after dosing
[4] = repeated oral doses of 75 mg clopidogrel (base)

SMILES: CC(=O)Oc1ccccc1C(=O)O [aspirin]
- major cardiovascular events (ischaemic stroke, MI, or vascular death), average rate per year [1]: 6%
- reduction of incidence of non-fatal myocardial infarction, non-fatal stroke and vascular death ([1]; people with known vascular disease): about a quarter

SMILES: COC(=O)[C@H](c1ccccc1Cl)N1CCc2sccc2C1 [clopidogrel bisulfate]
- effect of administration with meals on bioavailability of clopidogrel (assessed by pharmacokinetics of the main circulating metabolite): did not significantly modify

SMILES: COC(=O)[C@H](c1ccccc1Cl)N1CCc2sccc2C1 [clopidogrel]
- RRR of major cardiovascular events versus aspirin ([1]; 95% CI 0.30% to 16.5%, P=0.04): 8.7%
- OR for cardiovascular events compared with aspirin ([1]; 95% CI 0.84 to 0.98): 0.91
- major cardiovascular events (ischaemic stroke, MI, or vascular death), average rate per year [1]: 5%
- greater risk for major adverse cardiovascular events in patients with CYP2C19 variants ([1]; patients with variants in cytochrome P-450 2C19): 3.58 fold
- Absorption (based on urinary excretion of clopidogrel-related metabolites): at least 50%
- elimination half-life of the active metabolite (in vivo): about eight hours
- time of peak plasma levels (in vivo): 30 to 60 min
- excreted in the feces [3]: approximately 46%
- excreted in the urine [3]: approximately 50%
- plasma concentrations of the parent compound (below the quantification limit) (repeated 75 mg oral doses, beyond two hours after dosing): < 0.258 ng/mL
- peak plasma levels of the main circulating metabolite [4]: approx. 3 mg/L
- time of peak plasma levels of the main circulating metabolite [4]: approximately one hour after dosing
- reversible binding in vitro to human plasma proteins (human plasma proteins): 98%
- incidence of gastrointestinal hemorrhage [2]: 2.0 % annually

SMILES: O=C(O)[C@H](c1ccccc1Cl)N1CCc2sccc2C1 [main circulating metabolite]
- reversible binding in vitro to human plasma proteins (human plasma proteins): 94%
